The source made the active and inactive calls.
How the values were obtained:
Type in all cases: functional
[1] = target: Dual specificity mitogen-activated protein kinase kinase 1 (Homo sapiens, UniProt Q02750); experiment: Navigating the Kinome. Panel member name: MAP2K1
[2] = target: Tyrosine-protein kinase JAK2 (Homo sapiens, UniProt O60674);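 also: JAK2 tested as one member of a kinase panel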
[3] = target: ALK tyrosine kinase receptor (Homo sapiens, UniProt Q9UM73);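 also: ALK tested as one member of a kinase panel screen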
[4] = target: Proto-oncogene tyrosine-protein kinase receptor Ret (Homo sapiens, UniProt P07949);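 also: measured within a kinome-wide profiling panel, RET as the panel member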
[5] = target: Death-associated protein kinase 3 (Homo sapiens, UniProt O43293);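 also: measured as one member of a kinome-wide profiling panel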
Death-associated protein kinase 3, sequence (O43293 whole entry): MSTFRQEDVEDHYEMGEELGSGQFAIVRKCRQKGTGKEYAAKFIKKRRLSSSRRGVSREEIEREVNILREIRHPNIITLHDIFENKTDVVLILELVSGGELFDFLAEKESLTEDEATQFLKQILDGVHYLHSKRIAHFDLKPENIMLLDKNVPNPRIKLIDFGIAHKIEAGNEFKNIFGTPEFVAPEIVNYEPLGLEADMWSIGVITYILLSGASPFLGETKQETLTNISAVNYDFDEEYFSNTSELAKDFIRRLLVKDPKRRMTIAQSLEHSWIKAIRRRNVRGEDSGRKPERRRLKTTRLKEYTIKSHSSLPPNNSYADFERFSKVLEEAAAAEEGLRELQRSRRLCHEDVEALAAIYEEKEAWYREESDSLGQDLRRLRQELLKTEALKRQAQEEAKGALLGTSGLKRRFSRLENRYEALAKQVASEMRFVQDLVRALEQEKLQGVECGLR

[6] = target: Activin receptor type-1 (Homo sapiens, UniProt Q04771); experiment: Navigating the Kinome. Panel member name: ACVR1
[7] = target: Tyrosine-protein kinase BTK (Homo sapiens, UniProt Q06187)
Tyrosine-protein kinase BTK, sequence (Q06187 whole entry): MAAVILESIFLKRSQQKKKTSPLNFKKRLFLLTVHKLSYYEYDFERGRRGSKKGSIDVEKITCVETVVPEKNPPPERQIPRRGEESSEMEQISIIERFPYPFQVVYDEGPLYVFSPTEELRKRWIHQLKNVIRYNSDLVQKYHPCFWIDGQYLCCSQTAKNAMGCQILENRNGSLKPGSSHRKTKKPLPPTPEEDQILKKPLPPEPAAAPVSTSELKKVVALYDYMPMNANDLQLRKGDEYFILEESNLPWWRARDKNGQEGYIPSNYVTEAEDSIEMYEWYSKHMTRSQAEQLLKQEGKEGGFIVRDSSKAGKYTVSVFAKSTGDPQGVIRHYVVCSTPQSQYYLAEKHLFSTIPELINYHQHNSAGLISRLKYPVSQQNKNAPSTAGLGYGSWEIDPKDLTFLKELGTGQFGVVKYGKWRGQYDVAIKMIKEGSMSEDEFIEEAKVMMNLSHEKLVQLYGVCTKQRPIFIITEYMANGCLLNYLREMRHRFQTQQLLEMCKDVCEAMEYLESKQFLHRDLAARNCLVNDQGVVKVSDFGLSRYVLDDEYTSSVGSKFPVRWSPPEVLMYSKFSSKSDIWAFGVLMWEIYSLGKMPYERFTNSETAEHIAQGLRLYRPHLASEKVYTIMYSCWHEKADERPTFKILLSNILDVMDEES

[8] = target: Serine/threonine-protein kinase PAK 4 (Homo sapiens, UniProt O96013);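 also: value obtained within a kinome profiling panel in which PAK4 was one of the panel members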
[9] = target: LIM domain kinase 1 (Homo sapiens, UniProt P53667); experiment: Navigating the Kinome. Panel member name: LIMK1
[10] = target: Glycogen synthase kinase-3 alpha (Homo sapiens, UniProt P49840);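 also: GSK3A result taken from a broad kinome-wide kinase panel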
Glycogen synthase kinase-3 alpha, sequence (P49840 whole entry): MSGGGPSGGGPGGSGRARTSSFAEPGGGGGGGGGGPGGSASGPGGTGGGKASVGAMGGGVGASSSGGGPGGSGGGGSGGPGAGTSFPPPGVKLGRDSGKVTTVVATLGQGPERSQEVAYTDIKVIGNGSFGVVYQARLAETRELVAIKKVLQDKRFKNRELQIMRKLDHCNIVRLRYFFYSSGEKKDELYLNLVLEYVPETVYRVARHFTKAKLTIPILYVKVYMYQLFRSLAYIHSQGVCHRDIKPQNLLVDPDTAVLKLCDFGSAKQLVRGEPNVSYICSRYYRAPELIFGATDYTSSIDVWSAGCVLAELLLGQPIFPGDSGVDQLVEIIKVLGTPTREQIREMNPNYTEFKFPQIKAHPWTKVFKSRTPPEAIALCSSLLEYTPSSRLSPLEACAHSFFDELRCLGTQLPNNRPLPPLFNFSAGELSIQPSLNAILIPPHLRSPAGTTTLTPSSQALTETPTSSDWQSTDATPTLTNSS

[11] = target: Receptor-type tyrosine-protein kinase FLT3 (Homo sapiens, UniProt P36888);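 also: FLT3 was tested as one member of a kinome-wide kinase panel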
[12] = target: Serine/threonine-protein kinase Chk1 (Homo sapiens, UniProt O14757);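 also: measured as one member of a kinome-wide kinase profiling panel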
[13] = target: Tyrosine-protein kinase ABL1 (Homo sapiens, UniProt P00519)
[14] = target: Insulin-like growth factor 1 receptor (Homo sapiens, UniProt P08069); experiment: Navigating the Kinome. Panel member name: IGF1R
[15] = target: cAMP-dependent protein kinase catalytic subunit PRKX (Homo sapiens, UniProt P51817)
cAMP-dependent protein kinase catalytic subunit PRKX, sequence (P51817 whole entry): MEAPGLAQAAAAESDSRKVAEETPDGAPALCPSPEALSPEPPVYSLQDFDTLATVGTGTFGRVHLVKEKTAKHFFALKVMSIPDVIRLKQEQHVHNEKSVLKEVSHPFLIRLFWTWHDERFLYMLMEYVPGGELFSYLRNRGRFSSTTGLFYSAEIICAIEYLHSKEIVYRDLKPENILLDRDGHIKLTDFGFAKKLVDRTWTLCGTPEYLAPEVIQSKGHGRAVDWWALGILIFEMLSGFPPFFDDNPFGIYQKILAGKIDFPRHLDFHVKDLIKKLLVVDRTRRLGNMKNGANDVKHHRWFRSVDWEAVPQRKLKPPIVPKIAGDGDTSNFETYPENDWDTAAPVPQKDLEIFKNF

[16] = target: Platelet-derived growth factor receptor alpha (Homo sapiens, UniProt P16234); experiment: Navigating the Kinome. Panel member name: PDGFRA
[17] = target: Aurora kinase B (Homo sapiens, UniProt Q96GD4)
[18] = target: Rho-associated protein kinase 1 (Homo sapiens, UniProt Q13464);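 also: measured within a broad kinome-wide panel profiling many kinases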
Rho-associated protein kinase 1, sequence (Q13464 whole entry): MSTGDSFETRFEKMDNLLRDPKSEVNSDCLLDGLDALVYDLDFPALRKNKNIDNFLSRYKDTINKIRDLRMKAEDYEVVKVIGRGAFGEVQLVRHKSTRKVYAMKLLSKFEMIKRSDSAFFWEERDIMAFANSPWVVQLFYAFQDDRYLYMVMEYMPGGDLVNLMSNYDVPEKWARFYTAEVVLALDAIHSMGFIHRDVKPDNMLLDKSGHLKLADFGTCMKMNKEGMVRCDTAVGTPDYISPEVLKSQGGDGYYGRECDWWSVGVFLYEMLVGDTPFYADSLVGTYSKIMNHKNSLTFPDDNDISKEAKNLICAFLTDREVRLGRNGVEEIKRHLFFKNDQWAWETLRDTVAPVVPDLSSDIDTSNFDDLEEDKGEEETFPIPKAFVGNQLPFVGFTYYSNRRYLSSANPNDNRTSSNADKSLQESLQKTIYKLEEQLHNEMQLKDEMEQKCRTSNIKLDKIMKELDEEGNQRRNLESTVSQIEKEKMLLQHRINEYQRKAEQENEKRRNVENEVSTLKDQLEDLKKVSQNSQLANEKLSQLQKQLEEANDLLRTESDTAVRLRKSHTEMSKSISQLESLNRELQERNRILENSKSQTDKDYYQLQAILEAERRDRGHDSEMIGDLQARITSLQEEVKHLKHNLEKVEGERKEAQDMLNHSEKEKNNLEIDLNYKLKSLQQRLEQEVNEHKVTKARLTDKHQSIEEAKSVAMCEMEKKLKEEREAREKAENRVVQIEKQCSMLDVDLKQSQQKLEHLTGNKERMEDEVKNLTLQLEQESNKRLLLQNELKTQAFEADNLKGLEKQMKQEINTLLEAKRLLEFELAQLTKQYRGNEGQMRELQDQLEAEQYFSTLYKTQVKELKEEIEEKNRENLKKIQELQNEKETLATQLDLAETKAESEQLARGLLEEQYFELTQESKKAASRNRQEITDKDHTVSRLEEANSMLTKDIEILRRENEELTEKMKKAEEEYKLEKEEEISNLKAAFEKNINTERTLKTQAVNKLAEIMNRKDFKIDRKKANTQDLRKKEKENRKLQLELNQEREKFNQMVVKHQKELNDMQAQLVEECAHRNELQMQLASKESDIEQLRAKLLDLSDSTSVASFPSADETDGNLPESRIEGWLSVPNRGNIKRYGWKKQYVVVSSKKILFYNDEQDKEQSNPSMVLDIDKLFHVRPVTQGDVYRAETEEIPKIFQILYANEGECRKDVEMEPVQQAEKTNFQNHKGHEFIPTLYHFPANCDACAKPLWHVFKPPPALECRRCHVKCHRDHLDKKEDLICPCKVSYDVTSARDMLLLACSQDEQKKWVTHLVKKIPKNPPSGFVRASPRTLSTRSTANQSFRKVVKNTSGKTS

[19] = target: Cyclin-dependent kinase 8 (Homo sapiens, UniProt P49336); experiment: Navigating the Kinome. Panel member name: CDK8
Cyclin-dependent kinase 8, sequence (P49336 whole entry): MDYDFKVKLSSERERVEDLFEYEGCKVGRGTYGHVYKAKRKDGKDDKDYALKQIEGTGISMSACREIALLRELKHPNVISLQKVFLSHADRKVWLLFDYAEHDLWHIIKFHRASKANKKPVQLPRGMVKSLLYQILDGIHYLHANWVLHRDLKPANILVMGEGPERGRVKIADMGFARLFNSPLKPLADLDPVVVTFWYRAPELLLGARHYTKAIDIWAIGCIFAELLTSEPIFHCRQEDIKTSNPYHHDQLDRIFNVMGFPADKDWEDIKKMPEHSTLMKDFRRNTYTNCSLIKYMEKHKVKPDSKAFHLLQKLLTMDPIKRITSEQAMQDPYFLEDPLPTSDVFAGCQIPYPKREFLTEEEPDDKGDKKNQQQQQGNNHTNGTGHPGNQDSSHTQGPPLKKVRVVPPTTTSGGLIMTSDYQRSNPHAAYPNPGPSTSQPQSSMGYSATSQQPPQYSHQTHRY

[20] = target: BDNF/NT-3 growth factors receptor (Homo sapiens, UniProt Q16620);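 also: NTRK2 measured as one member of a broad kinome-wide kinase profiling panel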
[21] = target: Dual specificity protein kinase CLK4 (Homo sapiens, UniProt Q9HAZ1)
Dual specificity protein kinase CLK4, sequence (Q9HAZ1 whole entry): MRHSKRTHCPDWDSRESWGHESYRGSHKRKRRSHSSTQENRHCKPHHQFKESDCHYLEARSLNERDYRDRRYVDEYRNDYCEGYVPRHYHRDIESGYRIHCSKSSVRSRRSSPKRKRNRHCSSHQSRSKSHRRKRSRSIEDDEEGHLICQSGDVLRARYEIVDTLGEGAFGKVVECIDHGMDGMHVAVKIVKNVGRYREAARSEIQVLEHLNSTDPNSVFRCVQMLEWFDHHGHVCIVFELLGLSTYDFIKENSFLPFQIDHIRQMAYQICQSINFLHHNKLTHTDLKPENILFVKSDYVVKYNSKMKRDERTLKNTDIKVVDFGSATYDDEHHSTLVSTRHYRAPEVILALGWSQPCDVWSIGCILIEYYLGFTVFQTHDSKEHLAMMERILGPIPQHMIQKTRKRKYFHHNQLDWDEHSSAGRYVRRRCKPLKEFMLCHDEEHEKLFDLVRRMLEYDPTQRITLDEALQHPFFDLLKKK

[22] = target: Macrophage colony-stimulating factor 1 receptor (Homo sapiens, UniProt P07333);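 also: value comes from the Navigating the Kinome screening panel, CSF1R member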
[23] = target: Mitogen-activated protein kinase 14 (Homo sapiens, UniProt Q16539);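 also: part of a kinome-wide panel, MAPK14 entry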
Mitogen-activated protein kinase 14, sequence (Q16539 whole entry): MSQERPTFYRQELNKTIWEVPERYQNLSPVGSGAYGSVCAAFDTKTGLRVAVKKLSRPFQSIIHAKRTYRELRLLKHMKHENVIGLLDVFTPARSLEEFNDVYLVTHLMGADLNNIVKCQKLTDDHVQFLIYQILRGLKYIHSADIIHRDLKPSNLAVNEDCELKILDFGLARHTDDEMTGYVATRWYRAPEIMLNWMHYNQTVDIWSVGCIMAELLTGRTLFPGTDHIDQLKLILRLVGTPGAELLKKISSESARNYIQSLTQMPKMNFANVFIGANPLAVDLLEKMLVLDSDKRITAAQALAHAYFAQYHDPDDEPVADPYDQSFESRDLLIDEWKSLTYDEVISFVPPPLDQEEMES

[24] = target: Ribosomal protein S6 kinase alpha-3 (Homo sapiens, UniProt P51812);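 also: measured within a kinome-wide profiling panel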
[25] = target: Tyrosine-protein kinase Lck (Homo sapiens, UniProt P06239);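 also: lck was assayed as one member of a kinase panel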
[26] = target: Hepatocyte growth factor receptor (Homo sapiens, UniProt P08581);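 also: kinase panel profiling across the kinome, with MET as the panel member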
[27] = target: Focal adhesion kinase 1 (Homo sapiens, UniProt Q05397);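 also: measured as one member of a kinome panel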

Dual specificity mitogen-activated protein kinase kinase 1, sequence (Q02750 whole entry): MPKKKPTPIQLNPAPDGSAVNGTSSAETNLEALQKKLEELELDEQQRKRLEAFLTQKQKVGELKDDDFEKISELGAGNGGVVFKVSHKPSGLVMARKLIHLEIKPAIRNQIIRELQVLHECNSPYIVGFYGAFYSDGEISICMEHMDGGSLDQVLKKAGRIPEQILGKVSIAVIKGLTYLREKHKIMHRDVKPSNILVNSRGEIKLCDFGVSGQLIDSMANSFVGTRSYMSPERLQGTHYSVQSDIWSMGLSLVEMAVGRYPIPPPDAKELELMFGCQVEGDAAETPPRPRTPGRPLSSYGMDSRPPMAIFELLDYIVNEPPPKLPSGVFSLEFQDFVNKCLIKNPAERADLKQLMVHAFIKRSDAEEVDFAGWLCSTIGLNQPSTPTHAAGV

Ki [1]	Ki [2]	Ki [3]	Ki [4]	Ki [7]	Ki [8]	Ki [10]	Ki [11]	Ki [14]	Ki [15]	Ki [16]	Ki [18]	Ki [19]	Ki [20]	Ki [21]	Ki [22]	Ki [23]	SMILES	Ki [5]	also measured
> 3.16 µM (inactive)	> 2.51 µM (inactive)	> 6.31 µM (inactive)	> 3.16 µM (inactive)	> 6.31 µM (inactive)	> 5.01 µM (inactive)	2.51 µM (active)	> 3.16 µM (inactive)	> 2.51 µM (inactive)	1.26 µM (active)	> 2.51 µM (inactive)	0.00398 µM (active)	> 3.98 µM (inactive)	> 3.98 µM (inactive)	> 2.51 µM (inactive)	> 2.51 µM (inactive)	> 3.98 µM (inactive)	COc1cccc(C(C)NC(=O)c2cnc(-c3ccncc3)nc2)c1 (stereo not given)	> 5.01 µM (inactive)	Ki [6]: > 3.98 µM (inactive); Ki [9]: > 3.16 µM (inactive); Ki [12]: > 3.16 µM (inactive); Ki [13]: > 3.98 µM (inactive); Ki [17]: > 3.98 µM (inactive)
> 3.16 µM (inactive)	> 2.51 µM (inactive)	> 6.31 µM (inactive)	> 3.16 µM (inactive)	> 6.31 µM (inactive)	> 5.01 µM (inactive)	3.16 µM (active)	> 3.16 µM (inactive)	> 2.51 µM (inactive)	0.501 µM (active)	> 2.51 µM (inactive)	0.000794 µM (active)	> 3.98 µM (inactive)	> 3.98 µM (inactive)	0.1 µM (active)	> 2.51 µM (inactive)	> 3.98 µM (inactive)	CCCOc1cccc(C(C)NC(=O)c2ccc(-c3ccncc3F)cc2)c1 (stereo not given)	> 5.01 µM (inactive)	Ki [24]: > 3.98 µM (inactive); Ki [25]: > 6.31 µM (inactive); Ki [26]: > 2.51 µM (inactive); Ki [27]: > 6.31 µM (inactive)

Reference: ChEMBL document CHEMBL1201862, “PubChem BioAssay data set” (2004)
